From US9909086B2, “Green glycine betaine derivative compounds and compositions containing same” (priority 2012, dated 2018)

Key:
Surface tension = format: physicochemical; conditions: pure
From the text: Surface properties of betainyl amino alkyl(ene) methane sulfonates and alkyl(ene) betainate methane sulfonate surfactants are set forth below in Table 5. […] Comparative examples are provided by the GLUCOPON surfactants (commercially available from BASF, formerly known as Cognis) which are alkyl polyglucosides having a carbon length as indicated.

Foamability = format: physicochemical; conditions: concentration at CMC, flow rate 14 l/min
From the text: The surfactants of the invention also have foaming ability. This foaming ability is able to be effectively manipulated, i.e., foaming density increased, based on hydrocarbon chain length.

[1] = Interfacial tension, emulsifying sunflower oil in water; format: physicochemical; conditions: purified
[2] = Wetting properties, contact angles on treated substrates; format: physicochemical
[3] = Viscosity (thickening and gelling); format: physicochemical; conditions: aqueous solution
From the text: Table 15 below illustrates the thickening of GB stearic amine aqueous solution as a function of concentration and time.
The examples of Table 15 are compounds present in water alone and, thus, the viscosity continues to change. After a certain point, the viscosity will plateau and not change anymore. If the surfactant is provided at a predetermined concentration, the desired viscosity will be reached right away and not continue to increase due to the stability provided. Thus, generally, as the surfactant concentration increases, so does the initial viscosity. Also over a period of time, the viscosity increases. The viscosity can be controlled to terminate the viscosity increase, i.e., achieve a pre-determined viscosity, by adding salts to the composition. Preferred salts are sodium chloride, potassium chloride, magnesium, chloride, and lithium chloride. Another feature of the invention is the ability to combine GB surfactants with natural polysaccharides to form gel and pseudoplastic viscous liquids or gels. Examples of polysaccharides are agar, carregenan, natural gum, pectin, gelatin, starch, cellulose derivatives, cellulose derived from wood pulp fiber, lignin, etc. […]

[4] = aqueous solution; 20 seconds contact time; pure
[5] = surfactant concentration 1 % w/w
[6] = surfactant concentration 2 % w/w
[7] = surfactant concentration 3 % w/w
[8] = surfactant concentration 4 % w/w
[9] = surfactant concentration 5 % w/w
[10] = surfactant concentration 6 % w/w

CCCCCCCCCCCCNC(=O)C[N+](C)(C)C.CS(=O)(=O)[O-] [GB Lauric amide, Betainyl amino dodecane methane sulfonate]
Surface Tension @ CMC (Surface tension): 38 mN/m

CCCCCCCCCCCCCCNC(=O)C[N+](C)(C)C.CS(=O)(=O)[O-] [GB Myristic amide, Betainyl amino tetradecane methane sulfonate]
Surface Tension @ CMC (Surface tension): 38 mN/m

CCCCCCCC/C=C\CCCCCCCCNC(=O)C[N+](C)(C)C.CS(=O)(=O)[O-] [GB Oleic amide C18:1) pure, (Z)-betainyl amino octadec-9-ene methane sulfonate, pure]
Foam density (Foamability): 18 g/L | Time t: the time to fill 2 liters (Foamability): 85 s

CCCCCCCC/C=C\CCCCCCCCNC(=O)C[N+](C)(C)C.CS(=O)(=O)[O-] [GB Oleic amide, (Z)-betainyl amino octadec-9-ene methane sulfonate]
Surface Tension @ CMC (Surface tension): 36 mN/m | IFT [1]: 5.5 mN/m | Contact angle on treated substrate, Enamel Tiles ([2]; surfactant conc. 1 % (w/w)): 27.6 ° | Contact angle on treated substrate, Glass ([2]; surfactant conc. 1 % (w/w)): 22.6 ° | Contact angle on treated substrate, Kitchen Soil ([2]; surfactant conc. 1 % (w/w)): 46.4 ° | Contact angle on treated substrate, Soap Scum ([2]; surfactant conc. 1 % (w/w)): 31.1 ° | Contact angle on treated substrate, Enamel Tiles ([2]; surfactant conc. 3 % (w/w)): 26.8 ° | Contact angle on treated substrate, Glass ([2]; surfactant conc. 3 % (w/w)): 18.8 ° | Contact angle on treated substrate, Kitchen Soil ([2]; surfactant conc. 3 % (w/w)): 38.1 ° | Contact angle on treated substrate, Soap Scum ([2]; surfactant conc. 3 % (w/w)): 31.3 °

CCCCCCCCCCCCCCCCNC(=O)C[N+](C)(C)C.CS(=O)(=O)[O-] [GB Palmitic amide, Betainyl amino hexadecane methane sulfonate]
Surface Tension @ CMC (Surface tension): 37 mN/m

CCCCCCCCCCCCCCCCCCNC(=O)C[N+](C)(C)C.CS(=O)(=O)[O-] [GB Stearic amide, Betainyl amino octadecane methane sulfonate]
Surface Tension @ CMC (Surface tension): 39 mN/m | IFT [1]: 5.2 mN/m | Contact angle on treated substrate, Enamel Tiles ([2]; surfactant conc. 1 % (w/w)): 35.4 ° | Contact angle on treated substrate, Glass ([2]; surfactant conc. 1 % (w/w)): 23.1 ° | Contact angle on treated substrate, Kitchen Soil ([2]; surfactant conc. 1 % (w/w)): 39.7 ° | Contact angle on treated substrate, Soap Scum ([2]; surfactant conc. 1 % (w/w)): 31.6 ° | Contact angle on treated substrate, Enamel Tiles ([2]; surfactant conc. 3 % (w/w)): 27.1 ° | Contact angle on treated substrate, Glass ([2]; surfactant conc. 3 % (w/w)): 19.4 ° | Contact angle on treated substrate, Kitchen Soil ([2]; surfactant conc. 3 % (w/w)): 34.6 ° | Contact angle on treated substrate, Soap Scum ([2]; surfactant conc. 3 % (w/w)): 34.3 ° | Initial Viscosity [3, 5]: 120 cP | Viscosity after 15 days [3, 5]: 160 cP | Initial Viscosity [3, 6]: 160 cP | Viscosity after 15 days [3, 6]: 639 cP | Initial Viscosity [3, 7]: 160 cP | Viscosity after 15 days [3, 7]: 807 cP | Initial Viscosity [3, 8]: 2259 cP | Viscosity after 15 days [3, 8]: 3626 cP | Initial Viscosity [3, 9]: 3039 cP | Viscosity after 15 days [3, 9]: 6079 cP | Initial Viscosity [3, 10]: 5279 cP | Viscosity after 15 days [3, 10]: 8851 cP | Bathroom Soap Scum Solubilized [4]: 35%
